Data reported in patent US20240041976A1, “COMPOSITION AND USE” (priority 2020, published 2024).

Columns and labels:
Experiment in all cases: microbe, parasite or virus in culture
S. haemolyticus 4068 = conditions: for MIC of the component in combination: 4068
Method: (§1) Growth inhibition assays were performed in 96-well microtiter plates as described previously (Chi and Holo, 2018, supra). Briefly, 135 μl of TSB were dispensed in each well of a microtiter plate (according to the number of bacterial strains tested) except in the wells of the first row. The antimicrobials were diluted in TSB to working concentrations in a final volume of 285 μl and dispensed in the wells of the first row. The working concentrations were 100 μg/μl for garvicin KS, 10 μg/μl for micrococcin P1 and 1 mg/ml for penicillin G. From the first row, 150 μl of the antimicrobials were then serially diluted (two-fold dilutions) in a sequential fashion until the last row of the plate. Finally, 15 μl of a fresh O/N culture of each strain were added in the appropriate wells to reach a final volume of 150 μl in each well. The plates were then incubated at 37° C. for 24 h. The growth inhibition was expressed as minimum inhibitory concentration (MIC50), which refers to the minimum concentration of the antimicrobial needed to reduce at least 50% of the microbial growth compared to the untreated control. The MIC50 was assessed by optical density readings at 600 nm (O.D.600).
(§2) Synergistic interactions between antimicrobials were determined using the fractional inhibition concentration (FIC). The FIC values were calculated as follows: the sum of the FIC =FICa+FICb+FICc, where the FICa means MIC of A in combination/MIC of A alone, FICb means MIC of B in combination/MIC of B, and FICc means MIC of C in combination/MIC of C alone. Effects were considered as synergistic if FIC was ≤0.5 for two components mixture and ≤0.75 for three components mixture.
(§3) Bacteriocins and antimicrobial assays. […] These bacteriocins were all solubilized in 0.1% (vol/vol) trifluoracetic acid (TFA; Sigma-Aldrich). […] Cell growth inhibition assays and antimicrobial synergy determination was performed in line with Example 1.
(§4) To investigate whether there was synergy between the three bacteriocins (K1-EJ, GarKS and MP1), a checkboard antimicrobial assay was performed. The selected strains were treated for 5, 24 and 48 h with a range of concentrations of K1-EJ, GarKS and MP1 alone or in different combinations.

S. haemolyticus 4069 = conditions: for MIC of the component in combination: 4069
Method: as §1, §2, §3, §4

S. haemolyticus 4071 = conditions: for MIC of the component in combination: 4071
Method: as §1, §2, §3, §4

S. haemolyticus 4072 = conditions: for MIC of the component in combination: 4072
Method: as §1, §2, §3, §4

S. haemolyticus 4073 = conditions: for MIC of the component in combination: 4073
Method: as §1, §2, §3, §4

C/C=C(\NC(=O)c1csc(-c2csc(-c3ccc4c(n3)-c3csc(n3)[C@H]([C@@H](C)O)NC(=O)c3csc(n3)[C@H](C(C)C)NC(=O)c3csc(n3)/C(=C/C)NC(=O)[C@H]([C@@H](C)O)NC(=O)c3csc-4n3)n2)n1)C(=O)NC[C@@H](C)O [MP1, micrococcin P1]
MIC of the component in combination (S. haemolyticus 4068; 5 h, GarKS + MP1): 0.02 µg/mL
MIC of the component in combination (S. haemolyticus 4068; 5 h, K1-EJ + GarKS + MP1): 0.032 µg/mL
MIC of the component in combination (S. haemolyticus 4068; 5 h, K1-EJ + MP1): 0.02 µg/mL
MIC of the component in combination (S. haemolyticus 4068; 24 h, GarKS + MP1): 0.032 µg/mL
MIC of the component in combination (S. haemolyticus 4068; 24 h, K1-EJ + GarKS + MP1): 0.078 µg/mL
MIC of the component in combination (S. haemolyticus 4068; 24 h, K1-EJ + MP1): 0.078 µg/mL
MIC of the component in combination (S. haemolyticus 4068; 48 h, GarKS + MP1): 0.068 µg/mL
MIC of the component in combination (S. haemolyticus 4068; 48 h, K1-EJ + GarKS + MP1): 0.28 µg/mL
MIC of the component in combination (S. haemolyticus 4068; 48 h, K1-EJ + MP1): 0.072 µg/mL
MIC (S. haemolyticus 4068; Staphylococcus haemolyticus, 4068, 5 h): 0.02 µg/mL
MIC (S. haemolyticus 4068; Staphylococcus haemolyticus, 4068, 24 h): 0.023 µg/mL
MIC (S. haemolyticus 4068; Staphylococcus haemolyticus, 4068, 48 h): 0.078 µg/mL
MIC of the component in combination (S. haemolyticus 4069; 5 h, GarKS + MP1): 0.16 µg/mL
MIC of the component in combination (S. haemolyticus 4069; 5 h, K1-EJ + GarKS + MP1): 0.068 µg/mL
MIC of the component in combination (S. haemolyticus 4069; 5 h, K1-EJ + MP1): 0.15 µg/mL
MIC of the component in combination (S. haemolyticus 4069; 24 h, GarKS + MP1): 2.5 µg/mL
MIC of the component in combination (S. haemolyticus 4069; 24 h, K1-EJ + GarKS + MP1): 0.33 µg/mL
MIC of the component in combination (S. haemolyticus 4069; 24 h, K1-EJ + MP1): 2.3 µg/mL
MIC of the component in combination (S. haemolyticus 4069; 48 h, GarKS + MP1): 5 µg/mL
MIC of the component in combination (S. haemolyticus 4069; 48 h, K1-EJ + GarKS + MP1): 0.58 µg/mL
MIC of the component in combination (S. haemolyticus 4069; 48 h, K1-EJ + MP1): 4.8 µg/mL
MIC (S. haemolyticus 4069; Staphylococcus haemolyticus, 4069, 5 h): 0.15 µg/mL
MIC (S. haemolyticus 4069; Staphylococcus haemolyticus, 4069, 24 h): > 10 µg/mL
MIC (S. haemolyticus 4069; Staphylococcus haemolyticus, 4069, 48 h): > 10 µg/mL
MIC of the component in combination (S. haemolyticus 4071; 5 h, GarKS + MP1): 0.068 µg/mL
MIC of the component in combination (S. haemolyticus 4071; 5 h, K1-EJ + GarKS + MP1): 0.072 µg/mL
MIC of the component in combination (S. haemolyticus 4071; 5 h, K1-EJ + MP1): 0.042 µg/mL
MIC of the component in combination (S. haemolyticus 4071; 24 h, GarKS + MP1): 0.63 µg/mL
MIC of the component in combination (S. haemolyticus 4071; 24 h, K1-EJ + GarKS + MP1): 0.16 µg/mL
MIC of the component in combination (S. haemolyticus 4071; 24 h, K1-EJ + MP1): 0.14 µg/mL
MIC of the component in combination (S. haemolyticus 4071; 48 h, GarKS + MP1): 0.65 µg/mL
MIC of the component in combination (S. haemolyticus 4071; 48 h, K1-EJ + GarKS + MP1): 0.33 µg/mL
MIC of the component in combination (S. haemolyticus 4071; 48 h, K1-EJ + MP1): 0.3 µg/mL
MIC (S. haemolyticus 4071; Staphylococcus haemolyticus, 4071, 5 h): 0.043 µg/mL
MIC (S. haemolyticus 4071; Staphylococcus haemolyticus, 4071, 24 h): > 10 µg/mL
MIC (S. haemolyticus 4071; Staphylococcus haemolyticus, 4071, 48 h): > 10 µg/mL
MIC of the component in combination (S. haemolyticus 4072; 5 h, GarKS + MP1): 0.073 µg/mL
MIC of the component in combination (S. haemolyticus 4072; 5 h, K1-EJ + GarKS + MP1): 0.068 µg/mL
MIC of the component in combination (S. haemolyticus 4072; 5 h, K1-EJ + MP1): 0.036 µg/mL
MIC of the component in combination (S. haemolyticus 4072; 24 h, GarKS + MP1): 0.16 µg/mL
MIC of the component in combination (S. haemolyticus 4072; 24 h, K1-EJ + GarKS + MP1): 0.16 µg/mL
MIC of the component in combination (S. haemolyticus 4072; 24 h, K1-EJ + MP1): 0.15 µg/mL
MIC of the component in combination (S. haemolyticus 4072; 48 h, GarKS + MP1): 0.31 µg/mL
MIC of the component in combination (S. haemolyticus 4072; 48 h, K1-EJ + GarKS + MP1): 0.58 µg/mL
MIC of the component in combination (S. haemolyticus 4072; 48 h, K1-EJ + MP1): 0.16 µg/mL
MIC (S. haemolyticus 4072; Staphylococcus haemolyticus, 4072, 5 h): 0.039 µg/mL
MIC (S. haemolyticus 4072; Staphylococcus haemolyticus, 4072, 24 h): > 10 µg/mL
MIC (S. haemolyticus 4072; Staphylococcus haemolyticus, 4072, 48 h): 0.63 µg/mL
MIC of the component in combination (S. haemolyticus 4073; 5 h, GarKS + MP1): 0.02 µg/mL
MIC of the component in combination (S. haemolyticus 4073; 5 h, K1-EJ + GarKS + MP1): 0.033 µg/mL
MIC of the component in combination (S. haemolyticus 4073; 5 h, K1-EJ + MP1): 0.02 µg/mL
MIC of the component in combination (S. haemolyticus 4073; 24 h, GarKS + MP1): 0.073 µg/mL
MIC of the component in combination (S. haemolyticus 4073; 24 h, K1-EJ + GarKS + MP1): 0.078 µg/mL
MIC of the component in combination (S. haemolyticus 4073; 24 h, K1-EJ + MP1): 0.036 µg/mL
MIC of the component in combination (S. haemolyticus 4073; 48 h, GarKS + MP1): 0.083 µg/mL
MIC of the component in combination (S. haemolyticus 4073; 48 h, K1-EJ + GarKS + MP1): 0.16 µg/mL
MIC of the component in combination (S. haemolyticus 4073; 48 h, K1-EJ + MP1): 0.01 µg/mL
MIC (S. haemolyticus 4073; Staphylococcus haemolyticus, 4073, 5 h): 0.022 µg/mL
MIC (S. haemolyticus 4073; Staphylococcus haemolyticus, 4073, 24 h): 0.072 µg/mL
MIC (S. haemolyticus 4073; Staphylococcus haemolyticus, 4073, 48 h): 0.14 µg/mL
